Results: patent publication US12319640B2, “Cyclic diones as herbicidal compounds” (SYNGENTA CROP PROTECTION AG, priority 2019, dated 2025)

Experiments:
Test in all cases: Glasshouse herbicide test, pre- and post-emergence
Format in all cases: in vivo
Lolium perenne (LOLPE) = details: 250 g/h, evaluated after 13 days, five-point scale; for percentage damage caused to the plant, LOLPE POST: post-emergence; for percentage damage caused to the plant, LOLPE PRE: pre-emergence
Procedure: (§1) Seeds of a variety of test species are sown in standard soil in pots (Lolium perenne (LOLPE), Setaria faberi (SETFA), Alopecurus myosuroides (ALOMY), Echinochloa crus-galli (ECHCG), Avena fatua (AVEFA)). After cultivation for one day (pre-emergence) or after 8 days cultivation (post-emergence) under controlled conditions in a glasshouse (at 24/16° C., day/night; 14 hours light; 65% humidity), the plants are sprayed with an aqueous spray solution derived from the formulation of the technical active ingredient in acetone/water (50:50) solution containing 0.5% Tween 20 (polyoxyethelyene sorbitan monolaurate, CAS RN 9005-64-5). Compounds are applied at 250 g/h. The test plants are then grown in a glasshouse under controlled conditions in a glasshouse (at 24/16° C., day/night; 14 hours light; 65% humidity) and watered twice daily. After 13 days for pre and post-emergence, the test is evaluated for the percentage damage caused to the plant. The biological activities are shown in the following table on a five-point scale (5=80-100%; 4=60-79%; 3=40-59%; 2=20-39%; 1=0-19%).

[1] = tested on: Echinochloa crus-galli (ECHCG); details: 250 g/h, evaluated after 13 days, five-point scale; for percentage damage caused to the plant, ECHCG POST: post-emergence; for percentage damage caused to the plant, ECHCG PRE: pre-emergence
Procedure: as §1

[2] = tested on: Alopecurus myosuroides (ALOMY); details: 250 g/h, evaluated after 13 days, five-point scale; for percentage damage caused to the plant, ALOMY POST: post-emergence; for percentage damage caused to the plant, ALOMY PRE: pre-emergence
Procedure: as §1

Avena fatua (AVEFA) = details: 250 g/h, evaluated after 13 days, five-point scale; for percentage damage caused to the plant, AVEFA POST: post-emergence; for percentage damage caused to the plant, AVEFA PRE: pre-emergence
Procedure: as §1

Setaria faberi (SETFA) = details: 250 g/h, evaluated after 13 days, five-point scale; for percentage damage caused to the plant, SETFA POST: post-emergence; for percentage damage caused to the plant, SETFA PRE: pre-emergence
Procedure: as §1

SMILES | percentage damage caused to the plant, LOLPE POST (Lolium perenne (LOLPE)) | percentage damage caused to the plant, LOLPE PRE (Lolium perenne (LOLPE)) | percentage damage caused to the plant, ECHCG POST [1] | percentage damage caused to the plant, ECHCG PRE [1] | percentage damage caused to the plant, ALOMY POST [2] | percentage damage caused to the plant, ALOMY PRE [2] | percentage damage caused to the plant, AVEFA POST (Avena fatua (AVEFA)) | percentage damage caused to the plant, AVEFA PRE (Avena fatua (AVEFA)) | percentage damage caused to the plant, SETFA POST (Setaria faberi (SETFA)) | percentage damage caused to the plant, SETFA PRE (Setaria faberi (SETFA))
CC#Cc1cc(C)c(C2C(=O)CC3(CC2=O)CC(NC(C)=O)C3)c(C)c1 (centres unmarked) [Compound 2.025] | 5 (5=80-100%) | 5 (5=80-100%) | 5 (5=80-100%) | 5 (5=80-100%) | 5 (5=80-100%) | 5 (5=80-100%) | 5 (5=80-100%) | 5 (5=80-100%) | 5 (5=80-100%) | 5 (5=80-100%)
CC(=O)NC1CCC2(CC1)CC(=O)C(c1c(C)cc(-c3ncc(F)cc3F)cc1C)C(=O)C2 (centres unmarked) [Compound 2.031] | 5 (5=80-100%) | 5 (5=80-100%) | 5 (5=80-100%) | 5 (5=80-100%) | 5 (5=80-100%) | 5 (5=80-100%) | 5 (5=80-100%) | 5 (5=80-100%) | 5 (5=80-100%) | 5 (5=80-100%)
CC#Cc1cc(C)c(C2C(=O)CC3(CCC(NC(=O)C(F)F)CC3)CC2=O)c(C)c1 (centres unmarked) [Compound 2.011] | 5 (5=80-100%) | 5 (5=80-100%) | 5 (5=80-100%) | 5 (5=80-100%) | 5 (5=80-100%) | 5 (5=80-100%) | 5 (5=80-100%) | 5 (5=80-100%) | 5 (5=80-100%) | 5 (5=80-100%)
CC#Cc1cc(C)c(C2C(=O)CC3(CCC(C(=O)N4CCOCC4)CC3)CC2=O)c(C)c1 (centres unmarked) [Compound 1.008] | 5 (5=80-100%) | 5 (5=80-100%) | 5 (5=80-100%) | 5 (5=80-100%) | 5 (5=80-100%) | 4 (4=60-79%) | 5 (5=80-100%) | 3 (3=40-59%) | 4 (4=60-79%) | 5 (5=80-100%)
CC#Cc1cc(C)c(C2C(=O)CC3(CCC(NC(=O)C4CC4)CC3)CC2=O)c(C)c1 (centres unmarked) [Compound 2.004] | 5 (5=80-100%) | 5 (5=80-100%) | 5 (5=80-100%) | 5 (5=80-100%) | 5 (5=80-100%) | 5 (5=80-100%) | 5 (5=80-100%) | 5 (5=80-100%) | 5 (5=80-100%) | 5 (5=80-100%)
CC#Cc1cc(C)c(C2C(=O)CC3(CCC(NC(=O)Nc4ccccn4)CC3)CC2=O)c(C)c1 (centres unmarked) [Compound 2.012] | 5 (5=80-100%) | 5 (5=80-100%) | 4 (4=60-79%) | 4 (4=60-79%) | 4 (4=60-79%) | 4 (4=60-79%) | 5 (5=80-100%) | 3 (3=40-59%) | 4 (4=60-79%) | 4 (4=60-79%)
CC#Cc1cc(C)c(C2C(=O)CC3(CCC(NC(=O)C4COCCO4)CC3)CC2=O)c(C)c1 (centres unmarked) [Compound 2.009] | 5 (5=80-100%) | 5 (5=80-100%) | 5 (5=80-100%) | 5 (5=80-100%) | 4 (4=60-79%) | 4 (4=60-79%) | 5 (5=80-100%) | 4 (4=60-79%) | 5 (5=80-100%) | 5 (5=80-100%)
CC#Cc1cc(C)c(C2C(=O)CC3(CCC(NC(C)=O)CC3)CC2=O)c(OC)c1 (centres unmarked) [Compound 2.003] | 5 (5=80-100%) | 5 (5=80-100%) | 5 (5=80-100%) | 5 (5=80-100%) | 5 (5=80-100%) | 5 (5=80-100%) | 5 (5=80-100%) | 5 (5=80-100%) | 5 (5=80-100%) | 5 (5=80-100%)
CC#Cc1cc(C)c(C2C(=O)CC3(CCC(NC(=O)c4cnco4)CC3)CC2=O)c(C)c1 (centres unmarked) [Compound 2.016] | 5 (5=80-100%) | 5 (5=80-100%) | 5 (5=80-100%) | 5 (5=80-100%) | 4 (4=60-79%) | 3 (3=40-59%) | 5 (5=80-100%) | 4 (4=60-79%) | 5 (5=80-100%) | 5 (5=80-100%)
CC#Cc1cc(C)c(C2C(=O)CC3(CCC(C(=O)N(C)CCO)CC3)CC2=O)c(C)c1 (centres unmarked) [Compound 1.009] | 5 (5=80-100%) | 5 (5=80-100%) | 5 (5=80-100%) | 4 (4=60-79%) | 5 (5=80-100%) | 4 (4=60-79%) | 5 (5=80-100%) | 3 (3=40-59%) | 5 (5=80-100%) | 3 (3=40-59%)
CNC(=O)C1CCC2(CC1)CC(=O)C(c1c(C)cc(-c3ccc(F)cn3)cc1C)C(=O)C2 (centres unmarked) [Compound 1.024] | 5 (5=80-100%) | 5 (5=80-100%) | 5 (5=80-100%) | 5 (5=80-100%) | 5 (5=80-100%) | 5 (5=80-100%) | 5 (5=80-100%) | 5 (5=80-100%) | 5 (5=80-100%) | 5 (5=80-100%)
CC#Cc1cc(C)c(C2C(=O)CC3(CC2=O)CC(C(=O)NC)C3)c(C)c1 (centres unmarked) [Compound 1.017] | 5 (5=80-100%) | 5 (5=80-100%) | 5 (5=80-100%) | 5 (5=80-100%) | 5 (5=80-100%) | 5 (5=80-100%) | 5 (5=80-100%) | 5 (5=80-100%) | 5 (5=80-100%) | 5 (5=80-100%)
CC#Cc1cc(C)c(C2C(=O)CC3(CCC(C(=O)NC(C)(C)C)CC3)CC2=O)c(C)c1 (centres unmarked) [Compound 1.013] | 5 (5=80-100%) | 5 (5=80-100%) | 5 (5=80-100%) | 5 (5=80-100%) | 5 (5=80-100%) | 3 (3=40-59%) | 4 (4=60-79%) | 1 (1=0-19%) | 5 (5=80-100%) | 5 (5=80-100%)
CC#Cc1cc(C)c(C2C(=O)CC3(CCC(C(=O)Nc4ccccn4)CC3)CC2=O)c(C)c1 (centres unmarked) [Compound 1.004] | 4 (4=60-79%) | 4 (4=60-79%) | 4 (4=60-79%) | 5 (5=80-100%) | 4 (4=60-79%) | 3 (3=40-59%) | 5 (5=80-100%) | 4 (4=60-79%) | 4 (4=60-79%) | 5 (5=80-100%)
